# Data as given in US8772480B2, “Inhibitors of PI3 kinase and/or mTOR” (priority 2009, dated 2014).
# Tested on: phosphorylation of Akt at Serine 473 in U87 MG cells
# Assay: cells
# Details: Homo sapiens, U-87 MG, 2 h, read-out: U87Cell IC50
row,SMILES,IC50 [nM]
1,"Cc1nc(N)nc(-c2cccnc2Nc2cnc(Cl)c(N)c2)n1 [Example 265, N5-(3-(4-Amino-6-Methyl-1,3,5-Triazin-2-yl)Pyridin-2-yl)-2-Chloropyridine-3,5-Diamine]",349
2,"Cc1nc(N)nc(-c2cccnc2Nc2cnc(Cl)c(NS(=O)(=O)N3CCOCC3)c2)n1 [Example 366, N-(5-(3-(4-Amino-6-Methyl-1,3,5-Triazin-2-yl)Pyridin-2-Ylamino)-2-Chloropyridin-3-yl)Morpholine-4-Sulfonamide]",40
3,"Cc1nc(N)nc(-c2cccnc2Nc2cnc(Cl)c(NS(=O)(=O)N(C)C(C)C)c2)n1 [Example 367, N-(5-(3-(4-Amino-6-Methyl-1,3,5-Triazin-2-yl)Pyridin-2-Ylamino)-2-Chloropyridin-3-yl)-N-Isopropyl-N-Methylaminosulfamide]",246
4,"COc1ccc(NCc2cnc(Nc3ccc(OC)nc3)c(-c3nc(C)nc4[nH]cnc34)c2)cc1 [Example 77, 5-((4-methoxyphenylamino)methyl)-N-(6-methoxypyridin-3-yl)-3-(2-methyl-9H-purin-6-yl)pyridin-2-amine]",167

# Same assay, conditions: Homo sapiens, U-87 MG, 2 h, read-out: U87Cell IC50, pAkt (Ser 473), U87 MG cells, two hours with compound
row,SMILES,IC50 [nM]
1,"COc1ncc(Nc2ncc(C(=O)N3CCN(S(C)(=O)=O)CC3)cc2-c2nc(C)nc(N)n2)cc1F [Example 152, 4-(2-((5-Fluoro-6-Methoxy-3-Pyridinyl)Amino)-5-((4-(Methylsulfonyl)-1-Piperazinyl)Carbonyl)-3-Pyridinyl)-6-Methyl-1,3,5-Triazin-2-Amine]",37
2,"COc1ncc(Nc2ncc(C(C)(C)N3CCN(S(C)(=O)=O)CC3)cc2-c2nc(C)nc(N)n2)cc1F [Example 280, 4-(2-(5-Fluoro-6-Methoxypyridin-3-Ylamino)-5-(2-(4-(Methylsulfonyl)Piperazin-1-yl)Propan-2-yl)Pyridin-3-yl)-6-Methyl-1,3,5-Triazin-2-Amine]",14
3,"Cc1nc(N)nc(-c2cc(CN3CCN(S(C)(=O)=O)CC3)cnc2Nc2cc(F)cc3[nH]ncc23)n1 [Example 245, N-(3-(4-Amino-6-Methyl-1,3,5-Triazin-2-yl)-5-((4-(Methylsulfonyl)Piperazin-1-yl)Methyl)Pyridin-2-yl)-6-Fluoro-1H-Indazol-4-Amine]",19
4,"Cc1nc(N)nc(-c2cc(C3CCOCC3)cnc2Nc2cnc(Cl)c(NS(C)(=O)=O)c2)n1 [Example 328, N-(5-(3-(4-Amino-6-Methyl-1,3,5-Triazin-2-yl)-5-(Tetrahydro-2H-Pyran-4-yl)Pyridin-2-Ylamino)-2-Chloropyridin-3-yl)Methanesulfonamide]",1
5,"COc1ncc(Nc2ncc([C@@H](C)N3CCN(S(C)(=O)=O)C[C@H]3C)cc2-c2nc(C)nc(N)n2)cc1F [Example 360, 4-(2-(5-Fluoro-6-Methoxypyridin-3-Ylamino)-5-((R)-1-((R)-2-Methyl-4-(Methylsulfonyl)Piperazin-1-yl)Ethyl)Pyridin-3-yl)-6-Methyl-1,3,5-Triazin-2-Amine]",12
6,"COc1ncc(Nc2ncc([C@@H](C)N3CCN(S(C)(=O)=O)CC3)cc2-c2nc(C)nc(N)n2)cc1F [Example 148, (R)-4-(2-(5-Fluoro-6-Methoxypyridin-3-Ylamino)-5-(1-(4-(Methylsulfonyl)Piperazin-1-yl)Ethyl)Pyridin-3-yl)-6-Methyl-1,3,5-Triazin-2-Amine]",5
7,"COc1ncc(Nc2ncc(C(N3CCN(S(C)(=O)=O)CC3)C(F)(F)F)cc2-c2nc(C)nc(N)n2)cc1F (stereo not shown) [Example 325, 4-(2-(5-Fluoro-6-Methoxypyridin-3-Ylamino)-5-(2,2,2-Trifluoro-1-(4-(Methylsulfonyl)Piperazin-1-yl)Ethyl)Pyridin-3-yl)-6-Methyl-1,3,5-Triazin-2-Amine]",26
8,"Cc1nc(N)cc(-c2cc(C(C)N3CCOCC3)cnc2Nc2cnc(Cl)c(NS(=O)(=O)N(C)C)c2)n1 (stereo not shown) [Example 379, N-(2-Chloro-5-(3-(6-Amino-2-Methylpyrimidin-4-yl)-5-(1-Morpholinoethyl)Pyridin-2-Ylamino)Pyridin-3-yl)-N,N-Dimethylaminosulfamide]",46
9,"Cc1nc(N)cc(-c2cc([C@@H](C)N3CCOCC3)cnc2Nc2cnc(Cl)c(NS(=O)(=O)N(C)C)c2)n1 [Example 381, (R)—N-(2-Chloro-5-(3-(6-Amino-2-Methylpyrimidin-4-yl)-5-(1-Morpholinoethyl)Pyridin-2-Ylamino)Pyridin-3-yl)-N,N-Dimethylaminosulfamide]",40
10,"Cc1nc(N)cc(-c2cc([C@H](C)N3CCOCC3)cnc2Nc2cnc(Cl)c(NS(=O)(=O)N(C)C)c2)n1 [Example 382, (S—)N-(2-Chloro-5-(3-(6-Amino-2-Methylpyrimidin-4-yl)-5-(1-Morpholinoethyl)Pyridin-2-Ylamino)Pyridin-3-yl)-N,N-Dimethylaminosulfamide]",23
11,"COc1ncc(Nc2ncc(C(C)N3CCN(S(C)(=O)=O)CC3)cc2-c2nc(C)nc(N)n2)cc1F (stereo not shown) [Example 143, 4-(2-(5-fluoro-6-methoxypyridin-3-ylamino)-5-(1-(4-(methylsulfonyl)piperazin-1-yl)ethyl)pyridin-3-yl)-6-methyl-1,3,5-triazin-2-amine]",6
12,"Cc1nc(N)nc(-c2cccnc2Nc2ccc3oc(C)nc3c2)n1 [Example 165, N-(3-(4-Amino-6-Methyl-1,3,5-Triazin-2-yl)Pyridin-2-yl)-2-Methylbenzo[D]Oxazol-5-Amine]",2590
13,"Cc1nc(N)nc(-c2cc(C(C)(C)O)cnc2Nc2cncc(S(C)(=O)=O)c2)n1 [Example 355, 2-(5-(4-Amino-6-Methyl-1,3,5-Triazin-2-yl)-6-(5-(Methylsulfonyl)Pyridin-3-Ylamino)Pyridin-3-yl)Propan-2-ol]",1160

# Other lines, results leading:
row,IC50 [nM],SMILES
1,15,"COc1ncc(Nc2ncc(C3=CCOCC3)cc2-c2nc(C)nc(N)n2)cc1F [Example 343, 4-(5-(3,6-Dihydro-2H-Pyran-4-yl)-2-(5-Fluoro-6-Methoxypyridin-3-Ylamino)Pyridin-3-yl)-6-Methyl-1,3,5-Triazin-2-Amine]"
2,130,"Cc1nc(-c2cc(Cc3ccc(S(C)(=O)=O)cc3)cnc2Nc2cccc3[nH]ncc23)c2nc[nH]c2n1 [Example 104, N-(3-(2-methyl-9H-purin-6-yl)-5-(4-(methylsulfonyl)benzyl)pyridin-2-yl)-1H-indazol-4-amine]"
3,199,"COc1ncc(Nc2ncc(F)cc2-c2nc(C)nc(N)n2)cc1F [Example 185, 4-(5-Fluoro-2-(5-Fluoro-6-Methoxypyridin-3-Ylamino)Pyridin-3-yl)-6-Methyl-1,3,5-Triazin-2-Amine]"
4,479,"COc1cccc(NCc2cnc(Nc3ccc(OC)nc3)c(-c3nc(C)nc4[nH]cnc34)c2)c1 [Example 78, 5-((3-methoxyphenylamino)methyl)-N-(6-methoxypyridin-3-yl)-3-(2-methyl-9H-purin-6-yl)pyridin-2-amine]"
5,240,"COc1ccc(Nc2nc(NC3CCCC3)ncc2-c2nc(C)nc(N)n2)cn1 [Example 126, 5-(4-amino-6-methyl-1,3,5-triazin-2-yl)-N2-cyclopentyl-N4-(6-methoxypyridin-3-yl)pyrimidine-2,4-diamine]"
6,249,"COc1ccc(Nc2ncc(Cl)cc2-c2nc(C)nc3[nH]cnc23)cn1 [Example 127, 5-chloro-N-(6-methoxypyridin-3-yl)-3-(2-methyl-9H-purin-6-yl)pyridin-2-amine]"
7,2130,"Cc1nc(N)nc(-c2cccnc2Nc2ccc(NC(=O)Nc3cccc(F)c3)nc2)n1 [Example 191, 1-(5-(3-(4-Amino-6-Methyl-1,3,5-Triazin-2-yl)Pyridin-2-Ylamino)Pyridin-2-yl)-3-(3-Fluorophenyl)Urea]"
8,1220,"CC(=O)Nc1cc(-c2cnccc2Nc2cccc3[nH]ccc23)nc(C)n1 [Example 108, N-(6-(4-(1H-indol-4-ylamino)pyridin-3-yl)-2-methylpyrimidin-4-yl)acetamide]"
9,1160,"COc1cc(Nc2ncccc2-c2nc(C)nc(N)n2)ccc1F [Example 167, 4-(2-(4-Fluoro-3-Methoxyphenylamino)Pyridin-3-yl)-6-Methyl-1,3,5-Triazin-2-Amine]"
10,1150,"CCOc1ccc(Nc2ncccc2-c2nc(C)nc(N)n2)cn1 [Example 49, 4-(2-(6-ethoxypyridin-3-ylamino)pyridin-3-yl)-6-methyl-1,3,5-triazin-2-amine]"
11,> 10000,"COc1ccc(Nc2nc(-c3ccncc3)ncc2-c2nc(C)nc(N)n2)cn1 [Example 124, 4-(4-(6-methoxypyridin-3-ylamino)-2-(pyridin-4-yl)pyrimidin-5-yl)-6-methyl-1,3,5-triazin-2-amine]"
12,88,"CC(=O)Nc1ccc(Nc2ncccc2-c2nc(C)nc3[nH]cnc23)cc1 [Example 102, N-(4-(3-(2-methyl-9H-purin-6-yl)pyridin-2-ylamino)phenyl)acetamide]"
13,412,"COc1cccc(Nc2cnc(Nc3ccc(OC)nc3)c(-c3nc(C)nc4[nH]cnc34)c2)c1 [Example 96, N5-(3-methoxyphenyl)-N2-(6-methoxypyridin-3-yl)-3-(2-methyl-9H-purin-6-yl)pyridine-2,5-diamine]"
14,100,"CC(=O)Nc1ccc(Nc2ncc(Cl)cc2-c2nc(C)nc(N)n2)cn1 [Example 193, N-(5-(3-(4-Amino-6-Methyl-1,3,5-Triazin-2-yl)-5-Chloropyridin-2-Ylamino)Pyridin-2-yl)Acetamide]"
15,891,"Cc1nc(N)nc(-c2cccnc2Nc2ccc(NC(=O)Nc3ccccc3)nc2)n1 [Example 190, 1-(5-(3-(4-Amino-6-Methyl-1,3,5-Triazin-2-yl)Pyridin-2-Ylamino)Pyridin-2-yl)-3-Phenylurea]"
16,92,"Cc1nc(-c2cccnc2Nc2ccc(NC(=O)C3CC3)cc2)c2nc[nH]c2n1 [Example 182, N-(4-(3-(2-Methyl-9H-Purin-6-yl)Pyridin-2-Ylamino)Phenyl)Cyclopropanecarboxamide]"
17,> 10000,"COC(=O)Nc1ccc(Nc2ncc(Cl)cc2-c2nc(C)nc(N)n2)cn1 [Example 194, Methyl 5-(3-(4-Amino-6-Methyl-1,3,5-Triazin-2-yl)-5-Chloropyridin-2-Ylamino)Pyridin-2-Ylcarbamate]"
